One block for each compound: values may come before it. Calls of active or inactive are those of the source.
How the values were obtained:
[1] = molecular target: Prothrombin (Homo sapiens, UniProt P00734); experiment: Thrombin 1536 HTS Dose Response Confirmation. [Related pubchem assays: 1046 (Thrombin 1536 HTS; hits were confirmed in this assay)]; assay type: functional
[2] = molecular target: T1, Protein skinhead-1 (Caenorhabditis elegans, UniProt P34707); assay type: functional
T1 sequence (P34707 whole entry): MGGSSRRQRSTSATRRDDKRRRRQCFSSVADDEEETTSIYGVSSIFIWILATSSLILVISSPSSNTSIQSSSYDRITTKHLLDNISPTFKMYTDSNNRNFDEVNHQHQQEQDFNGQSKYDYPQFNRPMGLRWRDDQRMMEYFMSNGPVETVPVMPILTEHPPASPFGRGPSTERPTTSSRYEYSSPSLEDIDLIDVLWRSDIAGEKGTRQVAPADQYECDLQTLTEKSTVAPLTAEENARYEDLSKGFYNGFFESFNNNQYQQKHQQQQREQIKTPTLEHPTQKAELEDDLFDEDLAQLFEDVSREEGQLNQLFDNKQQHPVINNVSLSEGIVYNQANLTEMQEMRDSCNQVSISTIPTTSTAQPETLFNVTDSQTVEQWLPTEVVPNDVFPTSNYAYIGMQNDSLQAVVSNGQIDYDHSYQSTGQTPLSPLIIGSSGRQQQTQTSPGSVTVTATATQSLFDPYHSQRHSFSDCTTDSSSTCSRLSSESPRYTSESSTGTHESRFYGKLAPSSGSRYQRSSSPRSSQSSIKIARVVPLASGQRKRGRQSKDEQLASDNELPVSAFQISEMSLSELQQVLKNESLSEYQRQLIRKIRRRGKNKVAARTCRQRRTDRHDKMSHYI

[3] = molecular target: T2, Leucine aminopeptidase (Plasmodium falciparum 3D7, UniProt Q8IL11); experiment: P. falciparum M17LAP inhibitors, primary screen, biochemical, fluorogenic H-Leu-NHMec substrate, 1536-well (AID 1619); assay type: functional
T2 sequence (Q8IL11 whole entry): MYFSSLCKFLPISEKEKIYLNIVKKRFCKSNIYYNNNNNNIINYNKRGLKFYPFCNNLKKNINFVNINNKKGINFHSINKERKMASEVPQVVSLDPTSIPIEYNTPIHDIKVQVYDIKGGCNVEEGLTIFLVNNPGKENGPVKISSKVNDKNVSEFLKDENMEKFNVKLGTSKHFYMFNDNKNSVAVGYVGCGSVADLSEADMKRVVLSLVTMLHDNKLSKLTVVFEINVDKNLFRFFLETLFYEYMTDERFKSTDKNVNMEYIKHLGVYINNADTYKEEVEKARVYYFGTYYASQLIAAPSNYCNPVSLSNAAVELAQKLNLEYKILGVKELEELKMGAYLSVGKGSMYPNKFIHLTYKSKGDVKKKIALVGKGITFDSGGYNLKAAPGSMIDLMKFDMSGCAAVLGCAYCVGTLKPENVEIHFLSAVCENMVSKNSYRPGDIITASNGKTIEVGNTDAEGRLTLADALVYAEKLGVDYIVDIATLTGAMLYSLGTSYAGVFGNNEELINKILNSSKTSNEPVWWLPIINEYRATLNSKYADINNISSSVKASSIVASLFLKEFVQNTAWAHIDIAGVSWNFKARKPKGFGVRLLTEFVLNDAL

[4] = molecular target: T3, Histone-lysine N-methyltransferase NSD2 (Homo sapiens, UniProt O96028); assay type: biochemical
T3 sequence (O96028 whole entry): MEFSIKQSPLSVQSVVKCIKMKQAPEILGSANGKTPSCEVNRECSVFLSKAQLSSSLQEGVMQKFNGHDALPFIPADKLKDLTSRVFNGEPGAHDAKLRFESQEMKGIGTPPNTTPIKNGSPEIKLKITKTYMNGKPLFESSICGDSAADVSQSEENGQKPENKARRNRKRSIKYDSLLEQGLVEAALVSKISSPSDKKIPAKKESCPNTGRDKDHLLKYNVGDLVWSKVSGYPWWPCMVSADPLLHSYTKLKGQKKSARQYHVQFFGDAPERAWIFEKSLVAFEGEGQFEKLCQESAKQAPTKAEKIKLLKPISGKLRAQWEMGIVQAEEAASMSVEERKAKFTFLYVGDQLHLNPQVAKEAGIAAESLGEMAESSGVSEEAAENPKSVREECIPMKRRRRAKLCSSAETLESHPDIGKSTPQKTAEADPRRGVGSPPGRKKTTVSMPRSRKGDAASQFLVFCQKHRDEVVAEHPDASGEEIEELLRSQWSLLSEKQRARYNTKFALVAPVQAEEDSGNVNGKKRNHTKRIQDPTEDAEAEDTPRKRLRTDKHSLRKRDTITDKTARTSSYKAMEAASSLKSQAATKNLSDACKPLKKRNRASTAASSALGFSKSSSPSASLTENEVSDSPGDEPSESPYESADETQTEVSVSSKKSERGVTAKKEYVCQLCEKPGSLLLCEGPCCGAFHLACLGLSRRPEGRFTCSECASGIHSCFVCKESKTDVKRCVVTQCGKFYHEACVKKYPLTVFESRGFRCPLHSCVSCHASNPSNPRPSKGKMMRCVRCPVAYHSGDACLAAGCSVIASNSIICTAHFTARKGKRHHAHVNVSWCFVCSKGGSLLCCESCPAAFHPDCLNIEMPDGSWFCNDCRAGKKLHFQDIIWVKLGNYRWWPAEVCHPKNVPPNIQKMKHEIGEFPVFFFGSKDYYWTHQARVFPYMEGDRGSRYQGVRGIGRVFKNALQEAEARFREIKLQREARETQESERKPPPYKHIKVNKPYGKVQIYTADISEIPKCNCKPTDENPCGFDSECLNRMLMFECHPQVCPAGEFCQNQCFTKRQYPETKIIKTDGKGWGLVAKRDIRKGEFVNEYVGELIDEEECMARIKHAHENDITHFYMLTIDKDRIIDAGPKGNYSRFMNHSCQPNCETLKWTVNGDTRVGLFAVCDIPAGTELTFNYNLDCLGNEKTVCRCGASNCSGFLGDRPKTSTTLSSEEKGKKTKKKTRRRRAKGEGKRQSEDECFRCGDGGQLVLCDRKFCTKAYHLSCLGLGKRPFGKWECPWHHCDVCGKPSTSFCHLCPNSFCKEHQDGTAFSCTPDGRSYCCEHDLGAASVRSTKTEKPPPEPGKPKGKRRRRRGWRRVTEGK

[5] = molecular target: Paired box protein Pax-8 (Homo sapiens, UniProt Q06710); experiment: inhibitors of PAX8-driven TPO luciferase reporter, dose response, RMG-I cells, cherry-pick (AID 687027); assay type: functional, cell-based;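 note: luciferase reporter driven by Pax8 target thyroperoxidase promoter measured by SteadyGlo luminescence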
Sequence of Paired box protein Pax-8 (Q06710 whole entry): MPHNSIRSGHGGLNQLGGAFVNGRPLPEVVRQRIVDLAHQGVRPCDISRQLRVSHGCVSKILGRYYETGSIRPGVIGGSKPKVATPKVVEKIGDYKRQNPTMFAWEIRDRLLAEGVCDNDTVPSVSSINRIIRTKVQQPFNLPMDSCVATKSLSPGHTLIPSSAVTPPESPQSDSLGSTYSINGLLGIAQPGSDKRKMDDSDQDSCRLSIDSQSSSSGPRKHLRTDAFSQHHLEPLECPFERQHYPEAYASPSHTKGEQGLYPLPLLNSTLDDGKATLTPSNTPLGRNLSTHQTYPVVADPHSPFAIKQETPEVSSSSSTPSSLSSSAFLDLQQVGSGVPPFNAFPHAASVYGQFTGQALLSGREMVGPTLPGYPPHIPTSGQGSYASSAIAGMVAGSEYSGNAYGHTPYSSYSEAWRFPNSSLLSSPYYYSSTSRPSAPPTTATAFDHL

[6] = NIH:OVCAR-3 ovarian cancer cell cytotoxicity, dose response, PAX8 inhibitor project, plate reader, dry powder samples (AID 743044); assay type: functional, cell-based
[7] = molecular target: T4, Rac GTPase-activating protein 1 (Homo sapiens, UniProt Q9H0H5); experiment: MgcRacGAP GTPase-activating activity inhibitors, confirmation, biochemical, ADP Hunter fluorescence, primary and confirmatory (AID 624330); assay type: functional
T4 sequence (Q9H0H5 whole entry): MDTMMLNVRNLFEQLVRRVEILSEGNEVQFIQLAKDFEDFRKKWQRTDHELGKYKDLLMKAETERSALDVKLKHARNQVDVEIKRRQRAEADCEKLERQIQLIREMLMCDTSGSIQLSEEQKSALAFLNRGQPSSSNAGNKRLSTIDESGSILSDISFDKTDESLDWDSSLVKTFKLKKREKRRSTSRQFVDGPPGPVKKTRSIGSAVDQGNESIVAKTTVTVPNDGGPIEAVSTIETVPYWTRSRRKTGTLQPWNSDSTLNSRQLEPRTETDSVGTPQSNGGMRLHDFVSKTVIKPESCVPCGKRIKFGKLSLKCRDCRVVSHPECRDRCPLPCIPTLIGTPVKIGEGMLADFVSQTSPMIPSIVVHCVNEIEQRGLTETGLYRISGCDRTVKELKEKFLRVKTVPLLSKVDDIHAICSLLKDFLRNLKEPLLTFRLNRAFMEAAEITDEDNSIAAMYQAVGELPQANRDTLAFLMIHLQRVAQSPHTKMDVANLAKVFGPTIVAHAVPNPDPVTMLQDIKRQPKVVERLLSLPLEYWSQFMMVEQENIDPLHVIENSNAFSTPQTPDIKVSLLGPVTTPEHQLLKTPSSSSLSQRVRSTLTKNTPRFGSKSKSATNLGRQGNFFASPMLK

[8] = MC4R antagonists, dose response, counter-screen for LGR2 antagonist project, cell-based, plate reader, cherry pick (AID 743444); assay type: functional;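 note: transfected HEK 293 cells stimulated with alpha-MSH peptide; potency of inhibitors of the alpha-MSH evoked signal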
[9] = molecular target: T5, Heat shock factor protein 1 (Mus musculus, UniProt P38532); experiment: inhibition of MG132-induced HSE-luciferase signal, confirmation, cell-based, NIH3T3, luminescence, dose retest (AID 2382); assay type: functional;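 note: NIH3T3 fibroblasts with HSF1-driven luciferase reporter stressed by proteasome inhibitor MG132; luminescence from HSF1-driven luciferase expression after 8 hours of MG132 stress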
T5 sequence (P38532 whole entry): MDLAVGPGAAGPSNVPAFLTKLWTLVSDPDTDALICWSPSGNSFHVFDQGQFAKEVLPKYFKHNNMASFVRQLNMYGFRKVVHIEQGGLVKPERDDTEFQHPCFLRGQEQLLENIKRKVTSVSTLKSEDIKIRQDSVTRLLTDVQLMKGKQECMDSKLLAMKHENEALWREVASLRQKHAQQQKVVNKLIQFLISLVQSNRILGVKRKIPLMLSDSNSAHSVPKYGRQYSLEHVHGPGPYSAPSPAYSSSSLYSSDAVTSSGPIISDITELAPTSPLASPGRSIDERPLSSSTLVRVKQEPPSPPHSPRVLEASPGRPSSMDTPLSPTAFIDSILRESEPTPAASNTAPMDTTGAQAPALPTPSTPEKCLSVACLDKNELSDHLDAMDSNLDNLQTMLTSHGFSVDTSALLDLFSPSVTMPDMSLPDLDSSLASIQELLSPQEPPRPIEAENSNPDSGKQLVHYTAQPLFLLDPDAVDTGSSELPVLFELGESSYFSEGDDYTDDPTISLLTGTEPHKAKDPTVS

[10] = LGR2 antagonists, dose response, cell-based, HEK293, CRE-luciferase reporter, cherry pick, set 2 (AID 743343); assay type: functional;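 note: transfected cells were stimulated with diluted bursicon conditioned medium after compound addition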

AC50 [4]: 8.09 µM (active)
SMILES: O=C1C(=O)N(CCS(=O)(=O)c2ccccc2)c2ccc(F)cc21

AC50 [4]: > 20 µM (inactive)
SMILES: COc1cccc(=O)c2c(C)n(-c3ccc(C(=O)O)cc3)c(C)c12

IC50 [1]: > 50 µM (not active)
SMILES: Cc1ccc(C(=O)CSc2nc(C)cc(C)c2C(N)=O)cc1

IC50 [7]: 37.2 µM (active)
IC50 [3]: 35.2 µM (active)
SMILES: CCS(=O)(=O)C1=NN2C(=N)/C(=C\c3ccc(O)c(OC)c3)C(=O)N=C2S1

IC50 [1]: 9.56 µM (active)
SMILES: COc1ccccc1N1CCN(C(=O)CNC(=O)c2cn(-c3ccccc3OC)c(=O)c3ccccc23)CC1

The next lines start with the compound.

SMILES: CSc1nc(-c2ccco2)nn1C(=O)c1ccc(C)cc1
IC50 [1]: 0.16 µM (active)
IC50 [2]: > 100 µM (inactive)

SMILES: CCCCCOc1ccc(NC(=O)CCCC(=O)O)cc1
IC50 [3]: 11.3 µM (active)

SMILES: C/C(=N\NC(=S)NC1CCCCC1)c1cccc(Br)c1
IC50 [1]: > 50 µM (inconclusive)

SMILES: Cc1ccc(S(=O)(=O)N(C)C[C@@H]2Oc3cc(C#Cc4ccncc4)ccc3S(=O)(=O)N([C@H](C)CO)C[C@@H]2C)cc1
AC50 [5]: 6.03 µM (active)
AC50 [6]: 22.4 µM (active)

SMILES: Cc1ccc(C)c(NC(=O)C2CC=CCC2C(=O)O)c1 (configuration not stated)
IC50 [3]: 18.6 µM (active)

SMILES: Cc1cc(C(=O)COC(=O)C2CC2)c(C)n1-c1ccc(F)cc1
AC50 [8]: 0.334 µM (active)
EC50 [9]: 1.96 µM (active)
AC50 [10]: 0.585 µM (active)

SMILES: CCCOP(=O)(c1ccc(N(C)C)cc1)C(O)c1ccncc1 (configuration not stated)
IC50 [1]: > 50 µM (not active)

— ChEMBL document CHEMBL1201862, “PubChem BioAssay data set” (2004)
